Results on 1 compound are retold here after the NIST ThermoML archive (doi:10.1016/j.jct.2014.06.021).

For data set [1] the following is noted: Crystal; DTA.
Data set [2] can be described thus: Molar enthalpy of transition or fusion. The settings on record: Crystal; DSC.

Each structure is given as a SMILES string. Numbers after ± are expanded uncertainties.

Regarding `O=P(Oc1ccccc1)(Oc1ccccc1)N1CCN(P(=O)(Oc2ccccc2)Oc2ccccc2)CC1` [tetraphenyl piperazine-1,4-diylbis(phosphonate)], the Normal melting temperature in data set [1] is 184.67 ± 0.53 °C. Also, the “Molar enthalpy of transition or fusion” value in data set [2] was 14.3 ± 0.359 kcal/mol.
